Laboratory results reported in ChEMBL document CHEMBL3397020, “Synthesis of benzopentathiepin analogs and their evaluation as inhibitors of the phosphatase STEP” (Bioorg Med Chem Lett, 2015).

How the values were obtained:
[1] = target: T1, Tyrosine-protein phosphatase non-receptor type 5 (Homo sapiens, UniProt P54829); assay: Inhibition of STEP (unknown origin) in absence of GSH by p-nitrophenyl phosphate hydrolysis assay
T1 sequence (P54829 whole entry): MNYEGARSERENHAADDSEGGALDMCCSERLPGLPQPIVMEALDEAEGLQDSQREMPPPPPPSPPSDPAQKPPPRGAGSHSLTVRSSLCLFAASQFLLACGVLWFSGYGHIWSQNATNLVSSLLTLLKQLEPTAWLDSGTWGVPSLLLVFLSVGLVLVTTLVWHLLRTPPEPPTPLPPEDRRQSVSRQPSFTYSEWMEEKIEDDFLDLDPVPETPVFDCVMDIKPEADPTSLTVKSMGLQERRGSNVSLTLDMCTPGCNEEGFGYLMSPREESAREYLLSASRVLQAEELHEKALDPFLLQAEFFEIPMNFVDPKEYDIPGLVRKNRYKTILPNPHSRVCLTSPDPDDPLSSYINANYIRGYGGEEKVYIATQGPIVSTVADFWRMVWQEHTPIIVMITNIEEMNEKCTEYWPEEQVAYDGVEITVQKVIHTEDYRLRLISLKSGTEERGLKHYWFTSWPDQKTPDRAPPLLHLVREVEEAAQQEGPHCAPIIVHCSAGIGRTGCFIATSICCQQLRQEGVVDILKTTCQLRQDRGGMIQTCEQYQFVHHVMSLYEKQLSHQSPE

[2] = target: T1, Tyrosine-protein phosphatase non-receptor type 5; assay: Inhibition of STEP (unknown origin) pre-incubated for 10 mins before addition of p-nitrophenyl phosphate substrate in presence of 1 mM GSH
[3] = target: T1, Tyrosine-protein phosphatase non-receptor type 5; assay: Inhibition of STEP (unknown origin) pre-incubated for 10 mins before addition of p-nitrophenyl phosphate substrate in absence of GSH
[4] = target: T2, Tyrosine-protein phosphatase non-receptor type 5 (Homo sapiens) (UniProt P54829)
T2 sequence (whole entry): T1 sequence (P54829 whole entry)
Description: Inhibition of STEP (unknown origin) assessed as second-order rate constant for enzyme inactivation in absence of GSH by p-nitrophenyl phosphate hydrolysis assay

Compound O=C(Nc1cc(C(F)(F)F)cc2c1SSSSS2)C(F)(F)F has a Ki [1] of 235 nM, an IC50 [2] of 15000 nM and an IC50 [3] of 24 nM. For the same compound, the Kinact [4] was 0.0378 s⁻¹.
